Literature values in US20010001790A1, “TOPICAL FORMULATIONS COMPRISING SKIN PENETRATION AGENTS AND THE USE THEREOF” (priority 1999, published 2001).

Conditions: propylene glycol vehicle; upon addition of cetyl alcohol at 3% by weight

CC1(C)O[C@@H]2C[C@H]3[C@@H]4CCC5=CC(=O)C=C[C@]5(C)[C@@]4(F)[C@@H](O)C[C@]3(C)[C@]2(C(=O)CO)O1 [triamcinolone acetonide]
reduction of skin penetration of the pharmaceutically active agent: 39%
